Laboratory results published in article PMC7726145, “Fine-tuning of lysine side chain modulates the activity of histone lysine methyltransferases” (Scientific Reports, 2020).
“Also recorded” adds a separate entry of the source. Values belong to the compound of their own block, whether it stands above or below them.

Key:
Format in all cases: biochemical
SETD7 [1] = biological target: T1, SETD7 (Homo sapiens, UniProt Q8WTS6); test: MALDI-TOF MS methylation assay with SETD7
T1 construct: SETD7 residues 1–366; His6 (N); made in house; host or cells: Escherichia coli Rosetta BL21 (DE3)pLysS
T1 sequence (Q8WTS6 1-366): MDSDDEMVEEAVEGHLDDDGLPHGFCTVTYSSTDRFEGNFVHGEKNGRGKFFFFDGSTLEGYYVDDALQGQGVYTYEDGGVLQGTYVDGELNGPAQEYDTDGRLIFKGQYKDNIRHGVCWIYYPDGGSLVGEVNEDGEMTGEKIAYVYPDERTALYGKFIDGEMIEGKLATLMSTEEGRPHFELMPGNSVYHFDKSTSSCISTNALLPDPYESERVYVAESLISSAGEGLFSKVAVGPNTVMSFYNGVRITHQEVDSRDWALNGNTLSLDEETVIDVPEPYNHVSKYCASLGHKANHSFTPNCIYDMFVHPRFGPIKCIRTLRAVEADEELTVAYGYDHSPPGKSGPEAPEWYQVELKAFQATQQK
Experimental: Histone peptides bearing the lysine analogues KO and KN were examined as substrates for the recombinantly expressed human KMTs using MALDI-TOF MS assays as a direct method to monitor histone methylation. We tested whether KO and KN can be methylated by di- and trimethyltransferases GLP and G9a, and monomethyltransferases SETD7 and SETD8. Samples containing the human KMT enzyme (2 µM), histone peptide (100 µM), and SAM (500 µM with GLP and G9a; 200 µM with SETD8 and SETD7) in Tris buffer (50 mM, pH 8.0) were incubated for 1 h at 37 °C. Following established enzymatic conditions[17]–[19],[21],[22], all lysine-containing histone peptides were efficiently methylated by the four KMTs (Fig. 5a,d,g,j, respectively). […] In the G9a assay, traces (< 5%) of the dimethylated species H3KO9me2 were also observed. […] We further analyzed the product distribution of these two peptide substrates with G9a and GLP throughout the time course of methylation.
Red spectra show 1 h reactions at 37 °C including KMTs (2 µM), histone peptide (100 µM) and SAM (500 µM for GLP/G9a and 200 µM for SETD8/SED7) and black spectra the no-enzyme controls.
The lack of methylation of these two analogues with SETD7 indicated a selectivity between KMTs.
(§1) Human KMTs enzymes were expressed and purified as previously described[36]–[38]. The methyltransferase plasmid (SETD8 residues 186–352, SETD7 residues 1–366, GLP residues 951–1235, G9a residues 913–1193) transformed into Escherichia coli Rosetta BL21 (DE3)pLysS cells. Cultures were grown at 37 °C in LB media containing kanamycin and chloramphenicol. Cells were grown to an OD600 of 0.5–0.6 (approximately 2.5–3 h), at which point they induced by isopropyl β-D-1-thiogalactopyranoside (IPTG) and they were transferred to a temperature of 16 °C overnight. After letting the cells grow at this temperature, they were then harvested and lysed by sonication. The lysate was centrifuged at high-speed to remove unbroken cells. The supernatant was then centrifuged to further clean the lysate. Purification of the N-terminally his6-tagged KMTs was performed using Ni–NTA affinity chromatography column, which was prewashed with lysis buffer. Target KMT enzyme was then eluted using a linear gradient concentration of imidazole. The elute was then concentrated with centrifugal concentrators (Millipore). All KMT enzymes were further purified by gel filtration on a Superdex 75 column (GE Healthcare) on an AKTA system. Purified proteins were concentrated employing Amicon Ultra Centrifugal Filter Units (Millipore) with suitable molecular weight cutoffs. Proteins concentrations were determined using the Nanodrop DeNovix DS-11 spectrophotometer and the purity was monitored by SDS-PAGE on a 4–15% gradient polyacrylamide gel (Bio-Rad).
Histone methyltransferase assay was carried out as described in 30 µL final total volume[17]–[19],[21],[22]. In brief, purified KMTs enzymes (2 µM of each enzyme per each reaction) were incubated with 100 µM of purified histone peptides in the methyltransferase assay buffer Tris–HCl (pH 8.0) and methyl donor SAM (500 µM with GLP and G9a; 200 µM with SETD8 and SETD7) for 1 h at 37 °C. 3 µL of reaction mixture was quenched with an equal amount of MeOH (1:1 ratio). Then, 3 µL of this mixture was added to an equal amount volume of a standard α-cyano-4-hydroxycinnamic acid matrix solution for spotting on a MALDI plate (Stainless ground steel 96/12 Bruker-Daltonik, Bremen-Germany). The mass spectra of peptides were analyzed by MALDI-TOF MS. […]

SETD7 [2] = biological target: T1, SETD7; test: Inhibition of SETD7-catalyzed methylation of 14-mer H3K4; settings: for IC50: SETD7 200 nM, 14-mer H3K4 10 µM, inhibitor 1-200 µM, 4 repeats (dose-response of H3KO4)
Experimental: Residual activity assays monitoring the KMT-catalyzed methylation of the histone peptides were then carried out, aimed at providing competitive data of these two substrates as compared to the 14-mer H3K9 peptide for the active site of G9a/GLP, and to determine whether the two lysine analogues inhibit G9a- and GLP-catalyzed methylation of H3K9.
as §1
Supplementary Figure 19. […] Error bars represent the standard deviation from 4 repeats.

SETD8 = biological target: T2, SETD8 (Homo sapiens, UniProt Q9NQR1); test: SETD8 kinetics by MALDI-TOF MS enzymatic assay
T2 construct: SETD8 residues 186–352; His6 (N); made in house; host or cells: Escherichia coli Rosetta BL21 (DE3)pLysS
T2 sequence (Q9NQR1 186-352 isoform Q9NQR1-2): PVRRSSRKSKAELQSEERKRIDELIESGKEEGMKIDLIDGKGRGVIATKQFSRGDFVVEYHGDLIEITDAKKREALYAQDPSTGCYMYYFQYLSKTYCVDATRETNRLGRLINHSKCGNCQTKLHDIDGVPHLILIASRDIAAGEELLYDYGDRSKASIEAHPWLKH
Experimental: To determine the substrate specificity of SETD8 towards the two histone peptides bearing the unnatural lysine analogues KO and KN, a kinetic investigation was carried out employing a MALDI-TOF MS enzymatic assay[17],[18],[21]. KMT-catalyzed methylation of the oxalysine- and azalysine-containing histone peptides was characterized by slower substrate conversion rates (kcat) compared to their respective natural sequences, a result that we attribute to their poorer nucleophilic character due to the electron-withdrawing properties of the O and NH moieties. Furthermore, a highly hydrophobic channel of the methyltransferases is poorly tailored for significant electrostatic changes in the hydrophobic nature of the lysine side chain, likely leading to a larger penalty for desolvation of γ-azalysine and γ-oxalysine. Combined with the altered Km values for H4KO20 and H4KN20, this translated into a generally slightly worse catalytic efficiency for these two lysine analogues.
as §1
Kinetics studies were performed as described[17],[18],[21]. A solution of histone peptide (0–300 μM), was added to a solution of SAM (116 μM) in assay buffer (50 mM Tris, pH 8.0) at room temperature (final volume of 100 μL). […]

GLP [3] = biological target: T3, GLP (Homo sapiens, UniProt Q9H9B1); test: MALDI-TOF MS methylation assay with GLP; settings: GLP 2 µM, peptide 100 µM, SAM 500 µM, Tris 50 mM, pH 8.0, 1 h at 37 °C
T3 construct: GLP residues 951–1235; His6 (N); made in house; host or cells: Escherichia coli Rosetta BL21 (DE3)pLysS
T3 sequence (Q9H9B1 982-1266): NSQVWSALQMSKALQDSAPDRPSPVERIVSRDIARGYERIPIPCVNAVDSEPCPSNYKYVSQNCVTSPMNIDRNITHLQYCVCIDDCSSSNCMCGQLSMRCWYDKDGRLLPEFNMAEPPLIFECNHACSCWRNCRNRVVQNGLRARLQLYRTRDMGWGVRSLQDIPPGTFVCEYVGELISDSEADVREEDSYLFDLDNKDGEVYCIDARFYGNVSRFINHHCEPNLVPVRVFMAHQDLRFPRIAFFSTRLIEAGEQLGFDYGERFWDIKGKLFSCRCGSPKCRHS
Experimental: as §1, with “system.” for “system. Purified proteins were concentrated employing Amicon Ultra Centrifugal Filter Units (Millipore) with suitable molecular weight cutoffs. Proteins concentrations were determined using the Nanodrop DeNovix DS-11 spectrophotometer and the purity was monitored by SDS-PAGE on a 4–15% gradient polyacrylamide gel (Bio-Rad).”

G9a [4] = biological target: T4, G9a (Homo sapiens, UniProt Q96KQ7); test: MALDI-TOF MS methylation assay with G9a; settings: G9a 2 µM, peptide 100 µM, SAM 500 µM, Tris 50 mM, pH 8.0, 1 h at 37 °C
T4 construct: G9a residues 913–1193; His6 (N); made in house; host or cells: Escherichia coli Rosetta BL21 (DE3)pLysS
T4 sequence (Q96KQ7 913-1193): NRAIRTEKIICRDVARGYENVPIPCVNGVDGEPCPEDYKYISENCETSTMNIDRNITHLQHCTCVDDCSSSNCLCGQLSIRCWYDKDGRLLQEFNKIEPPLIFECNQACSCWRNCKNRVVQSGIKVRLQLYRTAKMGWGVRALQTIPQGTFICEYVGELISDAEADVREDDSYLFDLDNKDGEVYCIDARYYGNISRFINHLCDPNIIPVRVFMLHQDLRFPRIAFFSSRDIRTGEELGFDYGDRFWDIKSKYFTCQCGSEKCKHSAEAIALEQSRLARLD
Experimental: as §1, with “system.” for “system. Purified proteins were concentrated employing Amicon Ultra Centrifugal Filter Units (Millipore) with suitable molecular weight cutoffs. Proteins concentrations were determined using the Nanodrop DeNovix DS-11 spectrophotometer and the purity was monitored by SDS-PAGE on a 4–15% gradient polyacrylamide gel (Bio-Rad).”

G9a [5] = biological target: T4, G9a; test: Residual activity / inhibition of G9a-catalyzed methylation of H3K9; settings: G9a 100 nM; 14-mer H3K9 5 µM; analogue 100 µM
Experimental: as §1, with “system.” for “system. Purified proteins were concentrated employing Amicon Ultra Centrifugal Filter Units (Millipore) with suitable molecular weight cutoffs. Proteins concentrations were determined using the Nanodrop DeNovix DS-11 spectrophotometer and the purity was monitored by SDS-PAGE on a 4–15% gradient polyacrylamide gel (Bio-Rad).”

GLP [6] = biological target: T3, GLP; test: Residual activity / inhibition of GLP-catalyzed methylation of H3K9; settings: GLP 100 nM; 14-mer H3K9 5 µM; analogue 100 µM
Experimental: as §1, with “system.” for “system. Purified proteins were concentrated employing Amicon Ultra Centrifugal Filter Units (Millipore) with suitable molecular weight cutoffs. Proteins concentrations were determined using the Nanodrop DeNovix DS-11 spectrophotometer and the purity was monitored by SDS-PAGE on a 4–15% gradient polyacrylamide gel (Bio-Rad).”

GLP [7] = biological target: T3, GLP; test: NMR analysis of GLP-catalyzed methylation; settings: GLP 8 µM; peptide 400 µM; SAM 2 mM; Tris-d11 buffer pD 8.0; 1 h at 37 °C; 1H NMR and 1H-13C HSQC
Experimental: as §1, with “system.” for “system. Purified proteins were concentrated employing Amicon Ultra Centrifugal Filter Units (Millipore) with suitable molecular weight cutoffs. Proteins concentrations were determined using the Nanodrop DeNovix DS-11 spectrophotometer and the purity was monitored by SDS-PAGE on a 4–15% gradient polyacrylamide gel (Bio-Rad).”

[8] = SETD7 2 µM, peptide 100 µM, SAM 200 µM, Tris 50 mM, pH 8.0, 1 h at 37 °C
[9] = SETD8 2 µM, peptide 0–300 μM, SAM 116 μM, 50 mM Tris, pH 8.0, room temperature, 10 min, MALDI-TOF MS, value ± SD, replicates

- monomethylated species (traces) with SETD7 (SETD7 [1]; [8]): < 5%
- IC50 (SETD7 [2]): 38.9 µM
Compound: C[C@H](N)C(=O)N[C@@H](CCCNC(=N)N)C(=O)N[C@H](C(=O)N[C@@H](COCCN)C(=O)N[C@@H](CCC(N)=O)C(=O)N[C@H](C(=O)N[C@@H](C)C(=O)N[C@@H](CCCNC(=N)N)C(=O)N[C@@H](CCCCN)C(=O)N[C@@H](CO)C(=O)N[C@H](C(=O)NCC(=O)NCC(=O)N[C@@H](CCCCN)C(=O)N[C@@H](C)C(N)=O)[C@@H](C)O)[C@@H](C)O)[C@@H](C)O [H3KO4]

Compound: GGAKRHRK^20VLRDNIQ [H4K20, native peptide fragment 13–27 of H4]
- kcat/Km (SETD8; SETD8 2 µM, peptide 0–300 μM, SAM 116 μM, 50 mM Tris, pH 8.0, room temperature, 10 min, MALDI-TOF MS): 86.8 M⁻¹ s⁻¹
- Km (SETD8; [9]): 104 ± 25.3 µM
- kcat (SETD8; [9]): 0.009 ± 0.00183 s⁻¹
- order in which SETD8 tolerates modifications at the γ position (kinetics) (SETD8; comparison of kinetics data including H4KC20 of ref 18): H4K20 > H4KC20 > H4KN20 > H4KO20

- monomethylated species (traces) with SETD7 (SETD7 [1]; [8]): < 5%
- methylation with SETD7 at high concentration, 1 h (SETD7 [1]; SETD7 10 µM, SAM 1 mM, 37 °C, 1 h): poorly catalyzed traces
- inhibition of SETD7 in words (SETD7 [2]; 14-mer H3K4 substrate): inactive
- IC50 (SETD7 [2]): > 100 µM
Compound: C[C@H](N)C(=O)N[C@@H](CCCNC(=N)N)C(=O)N[C@H](C(=O)N[C@@H](CNCCN)C(=O)N[C@@H](CCC(N)=O)C(=O)N[C@H](C(=O)N[C@@H](C)C(=O)N[C@@H](CCCNC(=N)N)C(=O)N[C@@H](CCCCN)C(=O)N[C@@H](CO)C(=O)N[C@H](C(=O)NCC(=O)NCC(=O)N[C@@H](CCCCN)C(=O)N[C@@H](C)C(N)=O)[C@@H](C)O)[C@@H](C)O)[C@@H](C)O [H3KN4]
- methylation with SETD7 (SETD7 [1]; [8]): very low levels of methylation were detected; also recorded: significantly reduced
- methylation with SETD7 at high concentration, 3 h (SETD7 [1]; SETD7 10 µM, SAM 1 mM, 37 °C, 3 h): poorly catalyzed traces; also recorded: only traces of H3KO4me and H3KN4me observed

- methylation products with GLP (GLP [3]): complete trimethylation
- methylation products with G9a (G9a [4]): complete trimethylation
- methylation observed by NMR (GLP [7]): resulted in a signal of H3K9me3
Compound: ARTKQTARK^9STGGKA [H3K9, native histone peptide, N-terminal 15-residues of H3]
- inhibition of G9a in words (G9a [5]): outcompetes H3KO9 and H3KN9 peptides for binding in the active site of G9a/GLP
- inhibition of GLP in words (GLP [6]): outcompetes H3KO9 and H3KN9 peptides for binding in the active site of G9a/GLP
